Laboratory results: patent US10457691B2, “Macrocyclic kinase inhibitors and uses thereof” (Dana-Farber Cancer Institute, Inc., priority 2014, dated 2019)

Assays:
Assay type in all cases: biochemical
Details in all cases: read-out: Activity of the protein kinase when treated with compound I-1 (% control)
MST3 = MST3 (Homo sapiens, UniProt Q9Y6E0); assay: Protein kinase assay ([γ-32P] ATP), MST3
Protocol: (§1) In another set of experiments, the activities of the compounds described herein against various protein kinases were determined according to the methods reported in Hastie et al., Nature Protocols, 2006, 1, 968-971.
(§2) Enzyme dilution buffer. This buffer consisted of 50 mM Tris-HCl, pH 7.5, 0.1 mM EGTA, 1 mg ml^−1 bovine serum albumin and 0.1% (vol/vol) 2-mercaptoethanol.
(§3) 10× concentrated assay buffer. An assay buffer of 500 mM Tris-HCl, pH 7.5, 1 mM EGTA, and 100 mM magnesium acetate was used for assay of a wide variety of protein kinases. In some experiments, other cofactors were included (e.g., calcium ions and calmodulin were included for assay of calcium-calmodulindependent protein kinases).
(§4) 1 mM [γ-^32P] ATP. The specific activity of the [γ-^32P] ATP solution was 1×10^5 to 1×10^6 c.p.m. per nmol depending on what was needed to produce an optimal signal/noise ratio. […] To measure the concentration of ATP, a sample of such a stock solution was diluted to 20 μM, and the absorbance of the diluted sample was measured at 259 nm. The absorbance of a 20-μM stock solution of ATP at 259 nm was about 0.31. […] ATP to produce a radioactivity of 1×10^5 to 1×10^6 c.p.m. per nmol. […]
(§5) 13) Measure radioactivity in the samples by Cerenkov counting (e.g., without liquid scintillation fluid) in a liquid scintillation counter using a “^32P program”. […]

TSSK1 = TSSK1 (Homo sapiens, UniProt Q9BXA7); assay: Protein kinase assay ([γ-32P] ATP), TSSK1
Protocol: as §1, §2, §3, §4, §5

PRAK = PRAK (Homo sapiens, UniProt Q8IW41); assay: Protein kinase assay ([γ-32P] ATP), PRAK
Chain of PRAK (Q8IW41 whole entry, species assumed): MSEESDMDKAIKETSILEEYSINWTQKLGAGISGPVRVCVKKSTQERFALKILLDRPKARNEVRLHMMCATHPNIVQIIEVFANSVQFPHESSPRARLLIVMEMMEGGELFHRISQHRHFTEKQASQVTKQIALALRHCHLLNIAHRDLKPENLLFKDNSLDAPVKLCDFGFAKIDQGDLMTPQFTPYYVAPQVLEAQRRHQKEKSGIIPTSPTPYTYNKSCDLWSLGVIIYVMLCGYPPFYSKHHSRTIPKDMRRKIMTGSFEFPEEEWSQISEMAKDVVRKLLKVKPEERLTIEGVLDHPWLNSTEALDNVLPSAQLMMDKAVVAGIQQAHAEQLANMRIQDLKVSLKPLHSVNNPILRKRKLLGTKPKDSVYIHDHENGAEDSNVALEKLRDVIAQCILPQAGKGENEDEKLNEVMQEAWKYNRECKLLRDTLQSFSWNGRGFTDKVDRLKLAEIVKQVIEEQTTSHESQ
Protocol: as §1, §2, §3, §4, §5

BRSK2 = BRSK2 (Homo sapiens, UniProt Q8IWQ3); assay: Protein kinase assay ([γ-32P] ATP), BRSK2
Chain of BRSK2 (Q8IWQ3 whole entry): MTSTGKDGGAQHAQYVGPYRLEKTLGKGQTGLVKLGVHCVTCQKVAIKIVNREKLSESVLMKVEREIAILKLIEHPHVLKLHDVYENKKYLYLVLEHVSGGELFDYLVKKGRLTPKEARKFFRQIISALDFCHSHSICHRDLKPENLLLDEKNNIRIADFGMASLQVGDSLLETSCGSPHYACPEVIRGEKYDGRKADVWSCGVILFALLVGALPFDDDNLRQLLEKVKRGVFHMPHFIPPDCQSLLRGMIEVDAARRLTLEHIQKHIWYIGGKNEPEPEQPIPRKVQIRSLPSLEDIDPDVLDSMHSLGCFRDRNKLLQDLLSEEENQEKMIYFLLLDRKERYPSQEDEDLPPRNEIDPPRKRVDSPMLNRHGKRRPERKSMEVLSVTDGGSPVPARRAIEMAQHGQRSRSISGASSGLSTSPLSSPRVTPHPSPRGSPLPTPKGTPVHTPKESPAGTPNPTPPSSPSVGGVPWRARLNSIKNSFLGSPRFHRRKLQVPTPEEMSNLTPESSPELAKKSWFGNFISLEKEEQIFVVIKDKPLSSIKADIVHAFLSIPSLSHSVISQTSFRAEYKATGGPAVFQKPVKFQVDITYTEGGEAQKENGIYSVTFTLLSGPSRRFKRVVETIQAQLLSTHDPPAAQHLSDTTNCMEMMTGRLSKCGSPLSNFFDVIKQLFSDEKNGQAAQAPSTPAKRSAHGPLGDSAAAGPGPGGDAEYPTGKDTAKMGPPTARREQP
Protocol: as §1, §2, §3, §4, §5

OSR1 = OSR1 (Homo sapiens, UniProt O95747); assay: Protein kinase assay ([γ-32P] ATP), OSR1
Chain of OSR1 (O95747 whole entry): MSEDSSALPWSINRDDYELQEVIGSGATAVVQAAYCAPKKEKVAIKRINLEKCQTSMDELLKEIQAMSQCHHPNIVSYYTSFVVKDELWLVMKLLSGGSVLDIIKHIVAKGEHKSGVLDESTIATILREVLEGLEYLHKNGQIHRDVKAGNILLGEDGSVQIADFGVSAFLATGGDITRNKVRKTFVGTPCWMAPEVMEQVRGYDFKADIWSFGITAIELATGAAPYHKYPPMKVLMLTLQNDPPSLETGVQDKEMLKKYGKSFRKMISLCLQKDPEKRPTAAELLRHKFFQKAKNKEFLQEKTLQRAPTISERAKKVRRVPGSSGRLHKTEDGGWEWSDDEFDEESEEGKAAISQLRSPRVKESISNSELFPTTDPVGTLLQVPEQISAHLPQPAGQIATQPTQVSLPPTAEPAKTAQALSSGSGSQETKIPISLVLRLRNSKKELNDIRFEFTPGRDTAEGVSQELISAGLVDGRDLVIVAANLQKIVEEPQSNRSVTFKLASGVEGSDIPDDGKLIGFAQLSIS
Protocol: as §1, §2, §3, §4, §5

IKKb = IKKb (Homo sapiens, UniProt O14920); assay: Protein kinase assay ([γ-32P] ATP), IKKb
Protocol: as §1, §2, §3, §4, §5

p38d MAPK = p38d MAPK (Homo sapiens, UniProt O15264); assay: Protein kinase assay ([γ-32P] ATP), p38d MAPK
Protocol: as §1, §2, §3, §4, §5

TESK1 = TESK1 (Homo sapiens, UniProt Q15569); assay: Protein kinase assay ([γ-32P] ATP), TESK1
Protocol: as §1, §2, §3, §4, §5

PLK1 = PLK1 (Homo sapiens, UniProt P53350); assay: Protein kinase assay ([γ-32P] ATP), PLK1
Protocol: as §1, §2, §3, §4, §5

PAK6 = PAK6 (Homo sapiens, UniProt Q9NQU5); assay: Protein kinase assay ([γ-32P] ATP), PAK6
Chain of PAK6 (Q9NQU5 whole entry): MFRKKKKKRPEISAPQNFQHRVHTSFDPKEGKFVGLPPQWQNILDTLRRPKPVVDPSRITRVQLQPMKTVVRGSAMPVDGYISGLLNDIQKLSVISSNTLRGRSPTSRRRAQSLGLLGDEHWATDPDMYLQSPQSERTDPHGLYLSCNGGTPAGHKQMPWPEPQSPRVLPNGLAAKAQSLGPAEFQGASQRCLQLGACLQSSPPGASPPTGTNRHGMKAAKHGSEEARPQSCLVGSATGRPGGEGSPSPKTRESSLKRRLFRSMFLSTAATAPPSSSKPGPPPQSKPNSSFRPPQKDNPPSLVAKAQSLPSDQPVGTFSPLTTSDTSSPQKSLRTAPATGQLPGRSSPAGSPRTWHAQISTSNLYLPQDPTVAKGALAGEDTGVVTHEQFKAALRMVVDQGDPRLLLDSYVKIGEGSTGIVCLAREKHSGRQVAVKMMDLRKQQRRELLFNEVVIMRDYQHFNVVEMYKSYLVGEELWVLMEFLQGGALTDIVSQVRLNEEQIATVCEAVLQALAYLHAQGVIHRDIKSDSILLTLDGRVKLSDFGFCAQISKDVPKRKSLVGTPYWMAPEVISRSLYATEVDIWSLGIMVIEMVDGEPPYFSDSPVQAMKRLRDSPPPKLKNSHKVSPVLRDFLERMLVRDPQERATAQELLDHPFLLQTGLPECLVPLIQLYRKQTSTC
Protocol: as §1, §2, §3, §4, §5

TAK1 = TAK1 (Homo sapiens, UniProt O43318); assay: Protein kinase assay ([γ-32P] ATP), TAK1
Chain of TAK1 (O43318 1-303 limits assumed): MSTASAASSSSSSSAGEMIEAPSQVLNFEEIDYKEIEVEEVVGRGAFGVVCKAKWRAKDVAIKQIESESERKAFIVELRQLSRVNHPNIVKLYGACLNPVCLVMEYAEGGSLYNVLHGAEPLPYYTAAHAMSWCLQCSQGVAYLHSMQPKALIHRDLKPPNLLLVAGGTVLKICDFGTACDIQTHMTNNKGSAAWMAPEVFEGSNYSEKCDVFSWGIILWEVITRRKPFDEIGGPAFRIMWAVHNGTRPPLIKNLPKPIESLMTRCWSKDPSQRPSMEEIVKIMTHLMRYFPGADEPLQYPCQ
Protocol: as §1, §2, §3, §4, §5

S6K1 = S6K1 (Homo sapiens, UniProt P23443); assay: Protein kinase assay ([γ-32P] ATP), S6K1
Chain of S6K1 (P23443 whole entry, species assumed): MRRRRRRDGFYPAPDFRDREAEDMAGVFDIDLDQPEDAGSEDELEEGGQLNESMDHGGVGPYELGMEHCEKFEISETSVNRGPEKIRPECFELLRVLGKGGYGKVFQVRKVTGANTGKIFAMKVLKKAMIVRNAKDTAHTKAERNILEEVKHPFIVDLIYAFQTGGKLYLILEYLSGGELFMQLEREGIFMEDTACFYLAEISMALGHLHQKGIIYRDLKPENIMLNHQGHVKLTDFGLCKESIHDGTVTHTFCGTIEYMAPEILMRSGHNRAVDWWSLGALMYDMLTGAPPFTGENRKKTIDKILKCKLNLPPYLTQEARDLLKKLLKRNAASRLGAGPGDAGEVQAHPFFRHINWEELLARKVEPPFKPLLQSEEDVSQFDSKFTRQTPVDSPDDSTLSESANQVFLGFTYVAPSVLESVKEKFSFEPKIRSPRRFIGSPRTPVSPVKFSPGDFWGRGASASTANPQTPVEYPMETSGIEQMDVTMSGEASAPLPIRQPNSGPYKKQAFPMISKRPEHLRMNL
Protocol: as §1, §2, §3, §4, §5

GSK3b = GSK3b (Homo sapiens, UniProt P49841); assay: Protein kinase assay ([γ-32P] ATP), GSK3b
Protocol: as §1, §2, §3, §4, §5

TIE2 = TIE2 (Homo sapiens, UniProt Q02763); assay: Protein kinase assay ([γ-32P] ATP), TIE2
Protocol: as §1, §2, §3, §4, §5

p38g MAPK = p38g MAPK (Homo sapiens, UniProt P53778); assay: Protein kinase assay ([γ-32P] ATP), p38g MAPK
Protocol: as §1, §2, §3, §4, §5

MKK2 = MKK2 (Homo sapiens, UniProt P36507); assay: Protein kinase assay ([γ-32P] ATP), MKK2
Chain of MKK2 (P36507 whole entry): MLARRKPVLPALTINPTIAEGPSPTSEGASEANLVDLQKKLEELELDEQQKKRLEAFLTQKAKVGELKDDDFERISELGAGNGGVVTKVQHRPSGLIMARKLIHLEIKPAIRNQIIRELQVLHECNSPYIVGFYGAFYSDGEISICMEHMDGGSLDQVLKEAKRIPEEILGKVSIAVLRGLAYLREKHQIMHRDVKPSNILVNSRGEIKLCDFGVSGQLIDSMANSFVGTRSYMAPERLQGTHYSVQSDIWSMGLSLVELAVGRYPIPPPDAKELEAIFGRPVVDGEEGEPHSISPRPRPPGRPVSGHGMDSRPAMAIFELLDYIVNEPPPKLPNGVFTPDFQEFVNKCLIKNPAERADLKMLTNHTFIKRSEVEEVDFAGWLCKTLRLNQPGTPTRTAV
Protocol: as §1, §2, §3, §4, §5

TrkA = TrkA (Homo sapiens, UniProt P04629); assay: Protein kinase assay ([γ-32P] ATP), TrkA
Chain of TrkA (P04629 33-796, species assumed): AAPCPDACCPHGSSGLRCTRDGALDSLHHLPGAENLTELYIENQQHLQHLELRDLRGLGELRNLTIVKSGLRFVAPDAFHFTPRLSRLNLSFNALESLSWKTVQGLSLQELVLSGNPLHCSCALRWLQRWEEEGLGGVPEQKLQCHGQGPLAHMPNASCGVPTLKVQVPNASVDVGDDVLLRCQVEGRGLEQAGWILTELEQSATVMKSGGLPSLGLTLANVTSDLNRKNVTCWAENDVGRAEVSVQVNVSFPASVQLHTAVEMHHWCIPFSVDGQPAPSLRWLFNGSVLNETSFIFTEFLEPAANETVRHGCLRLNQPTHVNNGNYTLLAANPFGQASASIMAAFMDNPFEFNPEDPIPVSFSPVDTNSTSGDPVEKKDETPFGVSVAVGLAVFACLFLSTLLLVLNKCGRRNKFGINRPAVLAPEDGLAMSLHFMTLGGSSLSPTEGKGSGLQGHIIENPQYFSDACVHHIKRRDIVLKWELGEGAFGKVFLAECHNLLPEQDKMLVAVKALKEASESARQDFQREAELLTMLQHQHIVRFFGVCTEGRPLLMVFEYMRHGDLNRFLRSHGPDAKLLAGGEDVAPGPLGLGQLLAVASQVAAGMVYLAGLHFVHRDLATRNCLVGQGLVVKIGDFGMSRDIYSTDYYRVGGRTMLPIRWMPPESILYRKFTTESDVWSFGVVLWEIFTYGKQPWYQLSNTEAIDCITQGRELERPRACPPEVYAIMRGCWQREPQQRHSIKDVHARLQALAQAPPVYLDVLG
Protocol: as §1, §2, §3, §4, §5

[1] = 0.1 μM of compound I-1, DMSO control = 100%
[2] = 1 μM of compound I-1, DMSO control = 100%

Chain of MST3 (Q9Y6E0 whole entry): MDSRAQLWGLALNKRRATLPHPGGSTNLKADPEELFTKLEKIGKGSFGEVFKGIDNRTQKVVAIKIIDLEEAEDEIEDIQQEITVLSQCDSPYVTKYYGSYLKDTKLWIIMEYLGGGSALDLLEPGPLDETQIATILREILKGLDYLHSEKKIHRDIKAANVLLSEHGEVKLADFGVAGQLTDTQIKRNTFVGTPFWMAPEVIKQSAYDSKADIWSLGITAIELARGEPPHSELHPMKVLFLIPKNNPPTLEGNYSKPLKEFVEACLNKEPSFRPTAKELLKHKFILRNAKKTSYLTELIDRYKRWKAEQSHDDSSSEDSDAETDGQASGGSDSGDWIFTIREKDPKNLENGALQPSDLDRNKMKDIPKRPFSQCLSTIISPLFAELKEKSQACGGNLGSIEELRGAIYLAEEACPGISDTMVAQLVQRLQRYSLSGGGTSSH

Cc1cccc(C)c1NC(=O)N1C/C=C\COc2cccc(c2)Nc2cc1ncn2 [Compound I-1]
remaining activity at 0.1 µM (MST3; [1]): 91% | remaining activity at 1 µM (MST3; [2]): 87% | remaining activity at 0.1 µM (TSSK1; [1]): 83% | remaining activity at 1 µM (TSSK1; [2]): 85% | remaining activity at 0.1 µM (PRAK; [1]): 107% | remaining activity at 1 µM (PRAK; [2]): 84% | remaining activity at 0.1 µM (BRSK2; [1]): 110% | remaining activity at 1 µM (BRSK2; [2]): 78% | remaining activity at 0.1 µM (OSR1; [1]): 97% | remaining activity at 1 µM (OSR1; [2]): 79% | remaining activity at 0.1 µM (IKKb; [1]): 103% | remaining activity at 1 µM (IKKb; [2]): 77% | remaining activity at 0.1 µM (p38d MAPK; [1]): 110% | remaining activity at 1 µM (p38d MAPK; [2]): 73% | remaining activity at 0.1 µM (TESK1; [1]): 40% | remaining activity at 1 µM (TESK1; [2]): 21% | remaining activity at 0.1 µM (PLK1; [1]): 104% | remaining activity at 1 µM (PLK1; [2]): 101% | remaining activity at 0.1 µM (PAK6; [1]): 101% | remaining activity at 1 µM (PAK6; [2]): 78% | remaining activity at 0.1 µM (TAK1; [1]): 105% | remaining activity at 1 µM (TAK1; [2]): 81% | remaining activity at 0.1 µM (S6K1; [1]): 105% | remaining activity at 1 µM (S6K1; [2]): 83% | remaining activity at 0.1 µM (GSK3b; [1]): 101% | remaining activity at 1 µM (GSK3b; [2]): 75% | remaining activity at 0.1 µM (TIE2; [1]): 52% | remaining activity at 1 µM (TIE2; [2]): 10% | remaining activity at 0.1 µM (p38g MAPK; [1]): 101% | remaining activity at 1 µM (p38g MAPK; [2]): 88% | remaining activity at 0.1 µM (MKK2; [1]): 119% | remaining activity at 1 µM (MKK2; [2]): 77% | remaining activity at 0.1 µM (TrkA; [1]): 54% | remaining activity at 1 µM (TrkA; [2]): 76%
